Assay results published in patent publication US12281149B2, “Modulators of G-protein coupled receptors” (priority 2021, dated 2025).
*1 amine or outer side, *2 acyl side, *3 side chain or, on linkers, in order; H or OH if unused. Where a SMILES comes first, the peptide text is derived from it. Side-chain parts run from the residue outwards. [ ]: non-standard residue; d: D form. The star is where a group is joined. Isobutyryl(2-(3-CN-5-F-Ph)) = CC(C)(C(=O)*)c1cc(F)cc(C#N)c1; cPentCO(1-(4-ClPh)) = O=C(C1(c2ccc(Cl)cc2)CCCC1)*; C20 diacid = O=C(O)CCCCCCCCCCCCCCCCCCC(=O)*; β2hAla(2S) = C[C@@H](CN[*:1])C(=O)[*:2]; γGlu = O=C(O)[C@H](CCC(=O)[*:2])N[*:1]; X18 = O=C(C1(c2cccc(F)c2)CCCC1)*; AEEA = NCCOCCOCC(=O)O; Aib = CC(C)(N)C(=O)O; βAla = NCCC(=O)O

How the values were obtained:
Type in all cases: cell-based
GIP receptor [1] = biological target: T1, GIP receptor (Homo sapiens, UniProt P48546); assay: PathHunter β-arrestin assay, GIP receptor; set-up: host or cells: PathHunter CHO-K1 GIPR β-Arrestin Cell Line; conditions: β-arrestin-2 recruitment, PathHunter CHO-K1 GIPR β-Arrestin Cell Line, 90 min at 37° C.; normalized to GIP; read-out: GIPR β Arrestin EC50
T1 sequence (P48546 22-466): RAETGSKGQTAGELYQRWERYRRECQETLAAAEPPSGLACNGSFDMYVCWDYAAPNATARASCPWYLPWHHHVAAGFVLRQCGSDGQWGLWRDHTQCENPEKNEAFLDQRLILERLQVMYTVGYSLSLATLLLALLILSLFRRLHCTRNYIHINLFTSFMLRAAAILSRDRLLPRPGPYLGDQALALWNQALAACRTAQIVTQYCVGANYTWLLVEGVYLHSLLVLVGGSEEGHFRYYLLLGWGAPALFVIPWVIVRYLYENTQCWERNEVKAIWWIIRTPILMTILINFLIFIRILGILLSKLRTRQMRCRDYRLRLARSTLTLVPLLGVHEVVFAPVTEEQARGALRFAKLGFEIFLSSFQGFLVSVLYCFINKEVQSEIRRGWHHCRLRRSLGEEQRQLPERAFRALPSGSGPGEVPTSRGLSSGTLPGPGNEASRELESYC

GLP-1 receptor [2] = biological target: T2, GLP-1 receptor (Homo sapiens, UniProt P43220); assay: PathHunter β-arrestin assay, GLP-1 receptor; set-up: host or cells: PathHunter CHO-K1 GLP1R β-Arrestin Cell Line; conditions: β-arrestin-2 recruitment, PathHunter CHO-K1 GLP1R β-Arrestin Cell Line, 90 min at 37° C.; normalized to GLP-1; read-out: GLP-1R β Arrestin EC50
GLP-1 receptor [3] = biological target: T2, GLP-1 receptor; assay: HitHunter cAMP assay, GLP-1 receptor; conditions: for EC50: CHO cells stably expressing human GLP-1 receptor, cAMP accumulation, 30 min, read-out: EC50 GLP-1R; for Emax: CHO cells, cAMP, normalized to maximum signal from GLP-1 (high) and DMSO (low), read-out: Emax GLP-1R
GIP receptor [4] = biological target: T1, GIP receptor; assay: HitHunter cAMP assay, GIP receptor; conditions: for EC50: CHO cells stably expressing GIP receptor, cAMP accumulation, 30 min, read-out: EC50 GIP-1R; for Emax: CHO cells, cAMP, normalized to maximum signal from GIP (high) and DMSO (low), read-out: Emax GIP-1R

T2 sequence (P43220 24-463): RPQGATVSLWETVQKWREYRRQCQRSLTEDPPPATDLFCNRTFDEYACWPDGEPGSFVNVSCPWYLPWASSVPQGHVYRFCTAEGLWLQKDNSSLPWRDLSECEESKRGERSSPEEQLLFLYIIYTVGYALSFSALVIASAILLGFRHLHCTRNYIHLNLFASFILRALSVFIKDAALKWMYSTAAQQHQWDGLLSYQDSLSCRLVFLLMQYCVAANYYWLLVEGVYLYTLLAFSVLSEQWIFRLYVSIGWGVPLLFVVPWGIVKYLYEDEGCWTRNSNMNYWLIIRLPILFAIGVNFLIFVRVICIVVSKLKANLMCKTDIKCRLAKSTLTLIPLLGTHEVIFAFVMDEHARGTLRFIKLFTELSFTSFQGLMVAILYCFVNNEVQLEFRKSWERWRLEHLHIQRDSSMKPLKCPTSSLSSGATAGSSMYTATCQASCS

Structure (SMILES)	EC50 (GIP receptor [1])	EC50 (GLP-1 receptor [2])	EC50 (GLP-1 receptor [3])	Emax (GLP-1 receptor [3])	EC50 (GIP receptor [4])	Emax (GIP receptor [4])
CC[C@H](C)[C@H](NC(=O)[C@H](CC(C)C)NC(=O)[C@H](Cc1c[nH]c2ccccc12)NC(=O)[C@H](CCC(N)=O)NC(=O)[C@@H](NC(=O)[C@H](Cc1ccccc1)NC(=O)[C@H](C)NC(=O)[C@H](CCCCNC(=O)COCCOCCNC(=O)COCCOCCNC(=O)CC[C@H](NC(=O)CCCCCCCCCCCCCCCCCCC(=O)O)C(=O)O)NC(=O)[C@H](CCC(N)=O)NC(=O)[C@H](C)NC(=O)[C@@H](NC(=O)[C@H](CCCCN)NC(=O)[C@H](CC(=O)O)NC(=O)[C@H](CC(C)C)NC(=O)C(C)(C)NC(=O)[C@@H](NC(=O)[C@H](CO)NC(=O)[C@H](Cc1ccc(O)cc1)NC(=O)[C@H](CC(=O)O)NC(=O)[C@H](CO)NC(=O)[C@@H](NC(=O)[C@H](Cc1ccccc1)NC(=O)[C@@H](NC(=O)CNC(=O)[C@H](CCC(=O)O)NC(=O)[C@@H](C)CNC(=O)C1(c2cccc(F)c2)CCCC1)[C@@H](C)O)[C@@H](C)O)[C@@H](C)CC)[C@@H](C)CC)C(C)C)C(=O)N[C@@H](C)C(=O)NCC(=O)NCC(=O)N1CCC[C@H]1C(=O)N[C@@H](CO)C(=O)N[C@@H](CO)C(=O)NCC(=O)N[C@@H](C)C(=O)N1CCC[C@H]1C(=O)N1CCC[C@H]1C(=O)N1CCC[C@H]1C(=O)N[C@@H](CO)C(N)=O [Compound 180] (X18-[β2hAla(2S)]EGTFTSDYSI[Aib]LDKIAQK([AEEA-AEEA-γGlu-C20 diacid])AFVQWLIAGGPSSGAPPPS-NH2)	< 1000 nM	> 1000 nM	0.1 to 1 nM	101%	0.1 to 1 nM	105%
CC[C@H](C)[C@H](NC(=O)[C@H](CC(C)C)NC(=O)[C@H](Cc1c[nH]c2ccccc12)NC(=O)[C@H](CCC(N)=O)NC(=O)[C@@H](NC(=O)[C@H](Cc1ccccc1)NC(=O)[C@H](C)NC(=O)[C@H](CCCCNC(=O)COCCOCCNC(=O)COCCOCCNC(=O)CC[C@H](NC(=O)CCCCCCCCCCCCCCCCCCC(=O)O)C(=O)O)NC(=O)[C@H](CCC(N)=O)NC(=O)[C@H](C)NC(=O)[C@@H](NC(=O)[C@H](CCCCN)NC(=O)[C@H](CC(=O)O)NC(=O)[C@H](CC(C)C)NC(=O)C(C)(C)NC(=O)[C@@H](NC(=O)[C@H](CO)NC(=O)[C@H](Cc1ccc(O)cc1)NC(=O)[C@H](CC(=O)O)NC(=O)[C@H](CO)NC(=O)[C@@H](NC(=O)[C@H](Cc1ccccc1)NC(=O)[C@@H](NC(=O)CNC(=O)[C@H](CCC(=O)O)NC(=O)[C@@H](C)CNC(=O)C1(c2ccc(Cl)cc2)CCCC1)[C@@H](C)O)[C@@H](C)O)[C@@H](C)CC)[C@@H](C)CC)C(C)C)C(=O)N[C@@H](C)C(=O)NCC(=O)NCC(=O)N1CCC[C@H]1C(=O)N[C@@H](CO)C(=O)N[C@@H](CO)C(=O)NCC(=O)N[C@@H](C)C(=O)N1CCC[C@H]1C(=O)N1CCC[C@H]1C(=O)N1CCC[C@H]1C(=O)N[C@@H](CO)C(N)=O [Compound 181] ({cPentCO(1-(4-ClPh))}-[β2hAla(2S)]EGTFTSDYSI[Aib]LDKIAQK([AEEA-AEEA-γGlu-C20 diacid])AFVQWLIAGGPSSGAPPPS-NH2)	< 1000 nM	> 1000 nM	0.1 to 1 nM	97%	1 to 10 nM	106%
CC[C@H](C)[C@H](NC(=O)[C@H](CC(C)C)NC(=O)[C@H](Cc1c[nH]c2ccccc12)NC(=O)[C@H](CC(N)=O)NC(=O)[C@@H](NC(=O)[C@H](Cc1ccccc1)NC(=O)[C@H](C)NC(=O)[C@H](CCCCNC(=O)COCCOCCNC(=O)COCCOCCNC(=O)CC[C@H](NC(=O)CCCCCCCCCCCCCCCCCCC(=O)O)C(=O)O)NC(=O)[C@H](CCC(N)=O)NC(=O)[C@H](C)NC(=O)[C@@H](NC(=O)[C@H](CCCCN)NC(=O)[C@H](CC(=O)O)NC(=O)[C@H](CC(C)C)NC(=O)C(C)(C)NC(=O)[C@@H](NC(=O)[C@H](CO)NC(=O)[C@H](Cc1ccc(O)cc1)NC(=O)[C@H](CC(=O)O)NC(=O)[C@H](CO)NC(=O)[C@@H](NC(=O)[C@H](Cc1ccccc1)NC(=O)[C@@H](NC(=O)CNC(=O)[C@H](CCC(=O)O)NC(=O)CCNC(=O)C(C)(C)c1cc(F)cc(C#N)c1)[C@@H](C)O)[C@@H](C)O)[C@@H](C)CC)[C@@H](C)CC)C(C)C)C(=O)N[C@@H](C)C(=O)NCC(=O)NCC(=O)N1CCC[C@H]1C(=O)N[C@@H](CO)C(=O)N[C@@H](CO)C(=O)NCC(=O)N[C@@H](C)C(=O)N1CCC[C@H]1C(=O)N1CCC[C@H]1C(=O)N1CCC[C@H]1C(=O)N[C@@H](CO)C(N)=O [Compound 182] ({Isobutyryl(2-(3-CN-5-F-Ph))-βAla}-EGTFTSDYSI[Aib]LDKIAQK([AEEA-AEEA-γGlu-C20 diacid])AFVNWLIAGGPSSGAPPPS-NH2)	< 1000 nM	> 1000 nM	0.1 to 1 nM	96%	10 to 100 nM	98%
CC[C@H](C)[C@H](NC(=O)[C@H](CC(C)C)NC(=O)[C@H](Cc1c[nH]c2ccccc12)NC(=O)[C@H](CCC(N)=O)NC(=O)[C@@H](NC(=O)[C@H](Cc1ccccc1)NC(=O)[C@H](C)NC(=O)[C@H](CCCCNC(=O)COCCOCCNC(=O)COCCOCCNC(=O)CC[C@H](NC(=O)CCCCCCCCCCCCCCCCCCC(=O)O)C(=O)O)NC(=O)[C@H](C)NC(=O)[C@H](C)NC(=O)[C@@H](NC(=O)[C@H](CCCCN)NC(=O)[C@H](CC(=O)O)NC(=O)[C@H](CC(C)C)NC(=O)C(C)(C)NC(=O)[C@@H](NC(=O)[C@H](CO)NC(=O)[C@H](Cc1ccc(O)cc1)NC(=O)[C@H](CC(=O)O)NC(=O)[C@H](CO)NC(=O)[C@@H](NC(=O)[C@H](Cc1ccccc1)NC(=O)[C@@H](NC(=O)CNC(=O)[C@H](CCC(=O)O)NC(=O)CCNC(=O)C(C)(C)c1cc(F)cc(C#N)c1)[C@@H](C)O)[C@@H](C)O)[C@@H](C)CC)[C@@H](C)CC)C(C)C)C(=O)N[C@@H](C)C(=O)NCC(=O)NCC(=O)N1CCC[C@H]1C(=O)N[C@@H](CO)C(=O)N[C@@H](CO)C(=O)NCC(=O)N[C@@H](C)C(=O)N1CCC[C@H]1C(=O)N1CCC[C@H]1C(=O)N1CCC[C@H]1C(=O)N[C@@H](CO)C(N)=O [Compound 183] ({Isobutyryl(2-(3-CN-5-F-Ph))-βAla}-EGTFTSDYSI[Aib]LDKIAAK([AEEA-AEEA-γGlu-C20 diacid])AFVQWLIAGGPSSGAPPPS-NH2)	> 1000 nM	> 1000 nM	0.1 to 1 nM	96%	10 to 100 nM	95%
CC[C@H](C)[C@H](NC(=O)[C@H](CO)NC(=O)[C@H](Cc1ccc(O)cc1)NC(=O)[C@H](CC(=O)O)NC(=O)[C@H](CO)NC(=O)[C@@H](NC(=O)[C@H](Cc1ccccc1)NC(=O)[C@@H](NC(=O)CNC(=O)[C@H](CCC(=O)O)NC(=O)CCNC(=O)C(C)(C)c1cc(F)cc(C#N)c1)[C@@H](C)O)[C@@H](C)O)C(=O)N[C@@H](Cc1ccc(O)cc1)C(=O)N[C@@H](CC(C)C)C(=O)N[C@@H](CC(=O)O)C(=O)N[C@@H](CCCCN)C(=O)N[C@@H](CCC(N)=O)C(=O)N[C@@H](C)C(=O)N[C@@H](C)C(=O)N[C@@H](CCCCNC(=O)COCCOCCNC(=O)COCCOCCNC(=O)CC[C@H](NC(=O)CCCCCCCCCCCCCCCCCCC(=O)O)C(=O)O)C(=O)N[C@@H](CCC(=O)O)C(=O)N[C@@H](Cc1ccccc1)C(=O)N[C@H](C(=O)N[C@@H](CC(N)=O)C(=O)N[C@@H](Cc1c[nH]c2ccccc12)C(=O)N[C@@H](CC(C)C)C(=O)N[C@@H](CC(C)C)C(=O)N[C@@H](C)C(=O)NCC(=O)NCC(=O)N1CCC[C@H]1C(=O)N[C@@H](CO)C(=O)N[C@@H](CO)C(=O)NCC(=O)N[C@@H](C)C(=O)N1CCC[C@H]1C(=O)N1CCC[C@H]1C(=O)N1CCC[C@H]1C(=O)N[C@@H](CO)C(N)=O)C(C)C [Compound 184]	> 1000 nM	> 1000 nM	1 to 10 nM	99%	100 to 1000 nM	90%
